Like-named read-outs stand apart in the source and are kept apart here.
What was measured:
Assay type in all cases: in vivo
[1] = tested on: ducksalad (Heteranthera limosa); experiment: Test B flooded paddy test; details: Heteranthera limosa, Flood, 250 g ai/ha
Method in brief: (§1)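 Response scored visually against untreated controls, 0 = no effect and 100 = complete control, 13–15 d after treatment in the greenhouse. Compounds added to paddy water held 3 cm above soil surface. Treatment given at 2-leaf stage.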

[2] = tested on: rice (Oryra sativa); experiment: Test B flooded paddy test; details: Oryza sativa, Flood, 250 g ai/ha
Method in brief: as §1

[3] = tested on: barnyardgrass (Echinochloa crus-galli); experiment: Test B flooded paddy test; details: Echinochloa crus-galli, Flood, 250 g ai/ha
Method in brief: as §1

[4] = tested on: sedge, umbrella (small-flower umbrella sedge, Cyperus difformis); experiment: Test B flooded paddy test; details: Cyperus difformis, Flood, 250 g ai/ha
Method in brief: as §1

[5] = tested on: Galium (catchweed bedstraw, Galium aparine); experiment: Test A postemergence; details: Galium, post-emergence, 240 h; for pest or weed control at 125 g/ha: 125 g ai/ha
Method in brief: (§2)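 Visual injury, scored on a 0–100 scale relative to untreated controls, was recorded about 10 d after application. Treatments were a preemergence soil spray over planted seeds or a postemergence spray on plants at the one- to two-leaf stage, 2 to 10 cm tall, all in loam soil–sand blend in the greenhouse.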

[6] = tested on: blackgrass (Alopecurus myosuroides); experiment: Test A postemergence; details: Alopecurus myosuroides, post-emergence, 240 h; for pest or weed control at 125 g/ha: 125 g ai/ha
Method in brief: as §2

[7] = tested on: ragweed (common ragweed, Ambrosia elatior); experiment: Test A postemergence; details: Ambrosia artemisiifolia, post-emergence, 240 h; for pest or weed control at 125 g/ha: 125 g ai/ha
Method in brief: as §2

[8] = tested on: corn (Zea mays); experiment: Test A postemergence; details: Zea mays, post-emergence, 240 h; for plant injury at 125 g/ha: 125 g ai/ha
Method in brief: as §2

[9] = tested on: barnyardgrass (Echinochloa crus-galli); experiment: Test A postemergence; details: Echinochloa crus-galli, post-emergence, 240 h; for pest or weed control at 125 g/ha: 125 g ai/ha, read-out: Barnyardgrass plant response rating (0 to 100 scale, 0 no effect, 100 complete control)
Method in brief: as §2

[10] = tested on: wheat (Triticum aestivum); experiment: Test A postemergence; details: Triticum aestivum, post-emergence, 240 h; for plant injury at 125 g/ha: 125 g ai/ha
Method in brief: as §2

[11] = tested on: giant foxtail (Setaria faberii); experiment: Test A postemergence; details: Setaria faberi, post-emergence, 240 h; for pest or weed control at 125 g/ha: 125 g ai/ha
Method in brief: as §2

[12] = tested on: ryegrass, Italian (Italian ryegrass, Lolium multiflorum); experiment: Test A postemergence; details: Lolium multiflorum, post-emergence, 240 h; for pest or weed control at 125 g/ha: 125 g ai/ha
Method in brief: as §2

[13] = tested on: Kochia (Kochia scoparia); experiment: Test A postemergence; details: Bassia scoparia, post-emergence, 240 h; for pest or weed control at 125 g/ha: 125 g ai/ha
Method in brief: as §2

[14] = tested on: pigweed (Amaranthus retroflexus); experiment: Test A postemergence; details: Amaranthus retroflexus, post-emergence, 240 h; for pest or weed control at 125 g/ha: 125 g ai/ha
Method in brief: as §2

CN1C[C@H](c2ccc(OC(F)F)cc2)[C@@H](C(=O)Nc2ccccc2F)C1=O [Compound 1371]
pest or weed control at 250 g/ha ([1]; 360 h, visually evaluated after 13 to 15 d, read-out: Plant response rating, Ducksalad (0 to 100 scale where 0 is no effect and 100 is complete control)): 100% | pest or weed control at 250 g/ha ([2]; 360 h, visually evaluated after 13 to 15 d, read-out: Plant response rating, Rice (0 to 100 scale where 0 is no effect and 100 is complete control)): 0% | pest or weed control at 250 g/ha ([3]; 360 h, visually evaluated after 13 to 15 d, read-out: Plant response rating, Barnyardgrass (0 to 100 scale where 0 is no effect and 100 is complete control)): 60% | pest or weed control at 250 g/ha ([4]; 360 h, visually evaluated after 13 to 15 d, read-out: Plant response rating, Sedge, Umbrella (0 to 100 scale where 0 is no effect and 100 is complete control)): 0% | pest or weed control at 125 g/ha ([5]; Postemergence, visual rating about 10 d after treatment, read-out: Galium plant response rating (0 to 100 scale)): 70% | pest or weed control at 500 g/ha ([5]; Postemergence, 500 g ai/ha, visual injury, 0 to 100 scale (0 no effect, 100 complete control), approx. 10 d, read-out: Plant response rating, Galium): 70% | pest or weed control at 125 g/ha ([6]; Postemergence, visual rating about 10 d after treatment, read-out: Blackgrass plant response rating (0 to 100 scale)): 40% | pest or weed control at 500 g/ha ([6]; Postemergence, 500 g ai/ha, visual injury, 0 to 100 scale (0 no effect, 100 complete control), approx. 10 d, read-out: Plant response rating, Blackgrass): 60% | pest or weed control at 125 g/ha ([7]; Postemergence, visual rating about 10 d after treatment, read-out: Ragweed plant response rating (0 to 100 scale)): 20% | pest or weed control at 500 g/ha ([7]; Postemergence, 500 g ai/ha, visual injury, 0 to 100 scale (0 no effect, 100 complete control), approx. 10 d, read-out: Plant response rating, Ragweed): 60% | plant injury at 125 g/ha ([8]; Postemergence, visual rating about 10 d after treatment, read-out: Corn plant response rating (0 to 100 scale)): 40% | Corn plant response rating (crop injury, 0 = no effect, 100 = complete kill) at 500 g/ha ([8]; Postemergence, 500 g ai/ha, visual injury, 0 to 100 scale (0 no effect, 100 complete control), approx. 10 d): 90% | pest or weed control at 125 g/ha ([9]; Postemergence, visual rating about 10 d after treatment): 80% | pest or weed control at 500 g/ha ([9]; Postemergence, 500 g ai/ha, visual injury, 0 to 100 scale (0 no effect, 100 complete control), approx. 10 d, read-out: Plant response rating, Barnyardgrass): 90% | plant injury at 125 g/ha ([10]; Postemergence, visual rating about 10 d after treatment, read-out: Wheat plant response rating (0 to 100 scale)): 10% | plant injury at 500 g/ha ([10]; Postemergence, 500 g ai/ha, visual injury, 0 to 100 scale (0 no effect, 100 complete control), approx. 10 d, read-out: Plant response rating, Wheat): 60% | pest or weed control at 125 g/ha ([11]; Postemergence, visual rating about 10 d after treatment, read-out: Foxtail, Giant plant response rating (0 to 100 scale)): 90% | pest or weed control at 500 g/ha ([11]; Postemergence, 500 g ai/ha, visual injury, 0 to 100 scale (0 no effect, 100 complete control), approx. 10 d, read-out: Plant response rating, Foxtail, Giant): 90% | pest or weed control at 125 g/ha ([12]; Postemergence, visual rating about 10 d after treatment, read-out: Ryegrass, Italian plant response rating (0 to 100 scale)): 30% | pest or weed control at 500 g/ha ([12]; Postemergence, 500 g ai/ha, visual injury, 0 to 100 scale (0 no effect, 100 complete control), approx. 10 d, read-out: Plant response rating, Ryegrass, Italian): 50% | pest or weed control at 125 g/ha ([13]; Postemergence, visual rating about 10 d after treatment, read-out: Kochia plant response rating (0 to 100 scale)): 50% | pest or weed control at 500 g/ha ([13]; Postemergence, 500 g ai/ha, visual injury, 0 to 100 scale (0 no effect, 100 complete control), approx. 10 d, read-out: Plant response rating, Kochia): 80% | pest or weed control at 125 g/ha ([14]; Postemergence, visual rating about 10 d after treatment, read-out: Pigweed plant response rating (0 to 100 scale)): 30% | pest or weed control at 500 g/ha ([14]; Postemergence, 500 g ai/ha, visual injury, 0 to 100 scale (0 no effect, 100 complete control), approx. 10 d, read-out: Plant response rating, Pigweed): 60%

CN1C[C@H](c2ccc(C(F)F)cc2)[C@@H](C(=O)Nc2ccccc2F)C1=O [Compound 803]
pest or weed control at 250 g/ha ([1]; scale of 0 to 100 where 0 is no effect and 100 is complete control, read-out: Ducksalad plant response rating): 100% | pest or weed control at 250 g/ha ([2]; scale of 0 to 100 where 0 is no effect and 100 is complete control, read-out: Rice plant response rating): 55% | pest or weed control at 250 g/ha ([3]; scale of 0 to 100 where 0 is no effect and 100 is complete control, read-out: Barnyardgrass plant response rating): 90% | pest or weed control at 250 g/ha ([4]; scale of 0 to 100 where 0 is no effect and 100 is complete control, read-out: Sedge, Umbrella plant response rating): 0% | pest or weed control at 125 g/ha ([5]; postemergence, visual injury rating after approximately 10 d, read-out: Galium plant response rating (0 to 100 scale, 0 no effect, 100 complete control)): 60% | pest or weed control at 31 g/ha ([5]; Postemergence, 31 g ai/ha, visual injury after approx. 10 d, 0 to 100 scale, 0 no effect, 100 complete control, read-out: Plant response rating, Galium): 30% | pest or weed control at 125 g/ha ([6]; postemergence, visual injury rating after approximately 10 d, read-out: Blackgrass plant response rating (0 to 100 scale, 0 no effect, 100 complete control)): 50% | pest or weed control at 31 g/ha ([6]; Postemergence, 31 g ai/ha, visual injury after approx. 10 d, 0 to 100 scale, 0 no effect, 100 complete control, read-out: Plant response rating, Blackgrass): 20% | pest or weed control at 125 g/ha ([7]; postemergence, visual injury rating after approximately 10 d, read-out: Ragweed plant response rating (0 to 100 scale, 0 no effect, 100 complete control)): 30% | pest or weed control at 31 g/ha ([7]; Postemergence, 31 g ai/ha, visual injury after approx. 10 d, 0 to 100 scale, 0 no effect, 100 complete control, read-out: Plant response rating, Ragweed): 30% | plant injury at 125 g/ha ([8]; postemergence, visual injury rating after approximately 10 d, read-out: Corn plant response rating (0 to 100 scale, 0 no effect, 100 complete control)): 90% | Corn plant response rating (crop injury, 0 = no effect, 100 = complete kill) at 31 g/ha ([8]; Postemergence, 31 g ai/ha, visual injury after approx. 10 d, 0 to 100 scale, 0 no effect, 100 complete control): 20% | pest or weed control at 125 g/ha ([9]; postemergence, visual injury rating after approximately 10 d): 80% | pest or weed control at 31 g/ha ([9]; Postemergence, 31 g ai/ha, visual injury after approx. 10 d, 0 to 100 scale, 0 no effect, 100 complete control, read-out: Plant response rating, Barnyardgrass): 80% | plant injury at 125 g/ha ([10]; postemergence, visual injury rating after approximately 10 d, read-out: Wheat plant response rating (0 to 100 scale, 0 no effect, 100 complete control)): 40% | plant injury at 31 g/ha ([10]; Postemergence, 31 g ai/ha, visual injury after approx. 10 d, 0 to 100 scale, 0 no effect, 100 complete control, read-out: Plant response rating, Wheat): 0% | pest or weed control at 125 g/ha ([11]; postemergence, visual injury rating after approximately 10 d, read-out: Foxtail, Giant plant response rating (0 to 100 scale, 0 no effect, 100 complete control)): 90% | pest or weed control at 31 g/ha ([11]; Postemergence, 31 g ai/ha, visual injury after approx. 10 d, 0 to 100 scale, 0 no effect, 100 complete control, read-out: Plant response rating, Foxtail, Giant): 90% | pest or weed control at 125 g/ha ([12]; postemergence, visual injury rating after approximately 10 d, read-out: Ryegrass, Italian plant response rating (0 to 100 scale, 0 no effect, 100 complete control)): 40% | pest or weed control at 31 g/ha ([12]; Postemergence, 31 g ai/ha, visual injury after approx. 10 d, 0 to 100 scale, 0 no effect, 100 complete control, read-out: Plant response rating, Ryegrass, Italian): 0% | pest or weed control at 125 g/ha ([13]; postemergence, visual injury rating after approximately 10 d, read-out: Kochia plant response rating (0 to 100 scale, 0 no effect, 100 complete control)): 70% | pest or weed control at 31 g/ha ([13]; Postemergence, 31 g ai/ha, visual injury after approx. 10 d, 0 to 100 scale, 0 no effect, 100 complete control, read-out: Plant response rating, Kochia): 50% | pest or weed control at 125 g/ha ([14]; postemergence, visual injury rating after approximately 10 d, read-out: Pigweed plant response rating (0 to 100 scale, 0 no effect, 100 complete control)): 40% | pest or weed control at 31 g/ha ([14]; Postemergence, 31 g ai/ha, visual injury after approx. 10 d, 0 to 100 scale, 0 no effect, 100 complete control, read-out: Plant response rating, Pigweed): 30%

From patent publication US12077503B2, “Substituted cyclic amides and their use as herbicides” (FMC CORPORATION, priority 2015, dated 2024)
